In ChEMBL document CHEMBL3243937, “Adriamycin analogues. 2. Synthesis of 13-deoxyanthracyclines” (1978):

Tests used:
P388 [1] = experiment: Antitumor activity against mouse P388 cells allografted in mouse assessed as increase in survival time at 3.13 mg/kg, ip qd administered starting from day 1 to day 9 post challenge relative to control; type: functional; settings: route intraperitoneal
L1210 [2] = experiment: Inhibition of DNA synthesis in mouse L1210 cells compound preincubated for 3 hrs followed by [3H]thymidine addition measured after 1 hr by scintillation counting; type: functional
P388 [3] = experiment: Antitumor activity against mouse P388 cells allografted in mouse assessed as increase in survival time at 1.56 mg/kg, ip qd administered starting from day 1 to day 9 post challenge relative to control; type: functional; settings: route intraperitoneal
P388 [4] = experiment: Antitumor activity against mouse P388 cells allografted in mouse assessed as increase in survival time at 0.78 mg/kg, ip qd administered starting from day 1 to day 9 post challenge relative to control; type: functional; settings: route intraperitoneal
P388 [5] = experiment: Antitumor activity against mouse P388 cells allografted in mouse assessed as increase in survival time at 0.39 mg/kg, ip qd administered starting from day 1 to day 9 post challenge relative to control; type: functional; settings: route intraperitoneal
Calf thymus DNA = experiment: Binding affinity to calf thymus DNA by spectral analysis; type: nucleic-acid assay; settings: Bos taurus
L1210 [6] = experiment: Inhibition of RNA synthesis in mouse L1210 cells compound preincubated for 3 hrs followed by [3H]uridine addition measured after 1 hr by scintillation counting; type: functional
P388 [7] = experiment: Antitumor activity against mouse P388 cells allografted in mouse assessed as increase in survival time at 4 mg/kg, ip qd administered starting from day 1 to day 9 post challenge relative to control; type: functional; settings: route intraperitoneal
P388 [8] = experiment: Antitumor activity against mouse P388 cells allografted in mouse assessed as increase in survival time at 5.3 mg/kg, ip qd administered starting from day 1 to day 9 post challenge relative to control; type: functional; settings: route intraperitoneal
P388 [9] = experiment: Antitumor activity against mouse P388 cells allografted in mouse assessed as increase in survival time at 8 mg/kg, ip qd administered starting from day 1 to day 9 post challenge relative to control; type: functional; settings: route intraperitoneal
P388 [10] = experiment: Antitumor activity against mouse P388 cells allografted in mouse assessed as increase in survival time at 3.5 mg/kg, ip qd administered starting from day 1 to day 9 post challenge relative to control; type: functional; settings: route intraperitoneal
P388 [11] = experiment: Antitumor activity against mouse P388 cells allografted in mouse assessed as increase in survival time at 12 mg/kg, ip qd administered starting from day 1 to day 9 post challenge relative to control; type: functional; settings: route intraperitoneal
P388 [12] = experiment: Antitumor activity against mouse P388 cells allografted in mouse assessed as increase in survival time at 1.5 mg/kg, ip qd administered starting from day 1 to day 9 post challenge relative to control; type: functional; settings: route intraperitoneal
P388 [13] = experiment: Antitumor activity against mouse P388 cells allografted in mouse assessed as increase in survival time at 4 mg/kg, ip qd administered starting on day 5,9 and 13 post challenge relative to control; type: functional; settings: route intraperitoneal
P388 [14] = experiment: Antitumor activity against mouse P388 cells allografted in mouse assessed as increase in survival time at 8 mg/kg, ip qd administered starting on day 5,9 and 13 post challenge relative to control; type: functional; settings: route intraperitoneal
P388 [15] = experiment: Antitumor activity against mouse P388 cells allografted in mouse assessed as increase in survival time at 0.20 mg/kg, ip qd administered starting from day 1 to day 9 post challenge relative to control; type: functional; settings: dose 0.2 mg/kg; route intraperitoneal
P388 [16] = experiment: Antitumor activity against mouse P388 cells allografted in mouse assessed as increase in survival time at 16 mg/kg, ip qd administered starting on day 5,9 and 13 post challenge relative to control; type: functional; settings: route intraperitoneal
P388 [17] = experiment: Antitumor activity against mouse P388 cells allografted in mouse assessed as increase in survival time at 6.25 mg/kg, ip qd administered starting from day 1 to day 9 post challenge relative to control; type: functional; settings: route intraperitoneal
P388 [18] = experiment: Antitumor activity against mouse P388 cells allografted in mouse assessed as increase in survival time at 2 mg/kg, ip qd administered starting on day 5,9 and 13 post challenge relative to control; type: functional; settings: route intraperitoneal
P388 [19] = experiment: Antitumor activity against mouse P388 cells allografted in mouse assessed as increase in survival time at 1 mg/kg, ip qd administered starting on day 5,9 and 13 post challenge relative to control; type: functional; settings: route intraperitoneal

Row | Compound | T/C (P388 [1]) [%] | IC50 (L1210 [2]) [µM] | T/C (P388 [3]) [%] | T/C (P388 [4]) [%] | T/C (P388 [5]) [%] | ΔTm (Calf thymus DNA) [°C] | IC50 (L1210 [6]) [µM] | T/C (P388 [7]) [%] | T/C (P388 [8]) [%] | T/C (P388 [9]) [%] | T/C (P388 [10]) [%] | T/C (P388 [11]) [%] | T/C (P388 [12]) [%] | T/C (P388 [13]) [%] | T/C (P388 [14]) [%] | T/C (P388 [15]) [%] | T/C (P388 [16]) [%] | T/C (P388 [17]) [%] | T/C (P388 [18]) [%] | T/C (P388 [19]) [%]
1 | CC[C@]1(O)Cc2c(O)c3c(c(O)c2[C@@H](O[C@H]2C[C@H](N)[C@H](O)[C@H](C)O2)C1)C(=O)c1c(OC)cccc1C3=O | 160 | 1.3 | 160 | 134 | 140 | 50 | 0.84 | – | – | – | – | – | – | – | – | – | – | – | – | –
2 | CC[C@@]1(O)C[C@H](O[C@H]2C[C@H](N)[C@H](O)[C@H](C)O2)c2c(O)c3c(c(O)c2[C@H]1C(=O)OC)C(=O)c1cccc(O)c1C3=O.Cl | – | 5.6 | – | – | – | 7.6 | 2.6 | 132 | 139 | 140 | 130 | 141 | 127 | – | – | – | – | – | – | –
3 | COc1cccc2c1C(=O)c1c(O)c3c(c(O)c1C2=O)C[C@@](O)(C(C)=O)C[C@@H]3O[C@H]1C[C@H](N)[C@H](O)[C@H](C)O1 [DAUNORUBICIN] | – | 0.66 | 148 | 167 | 153 | – | 0.33 | – | – | – | – | – | – | 131 | 134 | 144 | 127 | – | – | –
4 | COc1cccc2c1C(=O)c1c(O)c3c(c(O)c1C2=O)C[C@@](O)(CCO)C[C@@H]3O[C@H]1C[C@H](N)[C@H](O)[C@H](C)O1 [13-DEOXYDOXORUBICIN] | 164 | 1.8 | 156 | 161 | 140 | 6.15 | 1.1 | – | – | – | – | – | – | – | – | – | – | 153 | – | –
5 | COc1cccc2c1C(=O)c1c(O)c3c(c(O)c1C2=O)C[C@@](O)(C(=O)CO)C[C@@H]3O[C@H]1C[C@H](N)[C@H](O)[C@H](C)O1 [DOXORUBICIN] | – | 1.5 | 176 | 197 | 174 | 13.4 | 0.58 | – | – | – | – | – | – | 142 | 157 | 160 | 130 | – | 133 | 133
